Laboratory results from patent US12365692B2, “6-hydroxy-8-oxatricyclo[3.2.1.02,4]octane-2-carboxamide derivatives for inducing chondrogenesis for treating joint damage” (NOVARTIS AG, priority 2018, dated 2025).
Where two headings read alike, the source gives them in different places.

Test system: ALP in NHAC (normal human articular chondrocytes)
Experiment: Alkaline Phosphatase (ALP) activity assay: ALP staining and quantitation in NHACs (prevention of chondrocyte hypertrophy)
Assay type: cell-based
Conditions: human IL-1 beta 10 ng/mL, 12 days; for IC50: Fast Blue RR staining, high content imaging
In short: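 NHACs were plated with test compound in DMEM containing 10% FBS, and human IL-1 beta was added 5 h later at 10 ng/mL final. Cultures were kept 12 days at 37° C, 5% CO2. Cells were then fixed, ALP-stained with Fast Blue RR/Naphthol AS-MX, and hypertrophic cells were imaged and quantified by high-content imaging.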

[1] = Chondrocyte, 288 h, read-out: ALP in NHAC (% Efficacy)

Row | Compound | IC50 (Chondrocyte, 288 h) [µM] | Emax [1] [%] | Emax | IC50 [µM]
1 | COc1cc([C@@]23C[C@]2(C(=O)Nc2cc(Cl)cc(C(F)(F)F)c2)[C@H]2C[C@H](O)[C@@H]3O2)ccn1 (racemic) [Example 71, rac-(1R,2R,4S,5R,6S)—N-(3-chloro-5-(trifluoromethyl)phenyl)-6-hydroxy-4-(2-methoxypyridin-4-yl)-8-oxatricyclo[3.2.1.02,4]octane-2-carboxamide] | > 30 | 9 | – | –
2 | COc1cc([C@@]23C[C@]2(C(=O)Nc2cc(C#N)cc(C(F)(F)F)c2)[C@H]2C[C@H](O)[C@@H]3O2)ccn1 (racemic) [Example 72, rac-(1R,2R,4S,5R,6S)—N-(3-cyano-5-(trifluoromethyl)phenyl)-6-hydroxy-4-(2-methoxypyridin-4-yl)-8-oxatricyclo[3.2.1.02,4]octane-2-carboxamide] | > 30 | 37 | – | –
3 | COc1cc([C@@]23C[C@]2(C(=O)Nc2cc(F)cc(C(F)(F)F)c2)[C@H]2C[C@H](O)[C@@H]3O2)ccn1 (racemic) [Example 73, rac-(1R,2R,4S,5R,6S)—N-(3-fluoro-5-(trifluoromethyl)phenyl)-6-hydroxy-4-(2-methoxypyridin-4-yl)-8-oxatricyclo[3.2.1.02,4]octane-2-carboxamide] | > 30 | 49 | – | –
4 | COc1cc([C@@]23C[C@]2(C(=O)Nc2ccc(C(F)(F)F)c(Cl)c2)[C@H]2C[C@H](O)[C@@H]3O2)ccn1 (racemic) [Example 74, rac-(1R,2R,4S,5R,6S)—N-(3-chloro-4-(trifluoromethyl)phenyl)-6-hydroxy-4-(2-methoxypyridin-4-yl)-8-oxatricyclo[3.2.1.02,4]octane-2-carboxamide] | 3.4 | 77 | – | –
5 | COc1cc([C@@]23C[C@]2(C(=O)Nc2ccc(C(F)(F)F)c(F)c2)[C@H]2C[C@H](O)[C@@H]3O2)ccn1 (racemic) [Example 75, rac-(1R,2R,4S,5R,6S)—N-(3-fluoro-4-(trifluoromethyl)phenyl)-6-hydroxy-4-(2-methoxypyridin-4-yl)-8-oxatricyclo[3.2.1.02,4]octane-2-carboxamide] | > 30 | 26 | – | –
6 | COc1cc([C@@]23C[C@]2(C(=O)Nc2ccc(C(F)(F)F)cc2)[C@H]2C[C@H](O)[C@@H]3O2)ccn1 (racemic) [Example 76, rac-(1R,2R,4S,5R,6S)-6-hydroxy-4-(2-methoxypyridin-4-yl)-N-(4-(trifluoromethyl)phenyl)-8-oxatricyclo[3.2.1.02,4]octane-2-carboxamide] | 15 | 57 | – | –
7 | N#Cc1cc(NC(=O)[C@]23C[C@@]2(c2ccnc(F)c2)[C@H]2O[C@@H]3C[C@@H]2O)cc(C(F)(F)F)c1 (racemic) [Example 77, rac-(1R,2R,4S,5R,6S)—N-(3-cyano-5-(trifluoromethyl)phenyl)-4-(2-fluoropyridin-4-yl)-6-hydroxy-8-oxatricyclo[3.2.1.02,4]octane-2-carboxamide] | > 30 | 29 | – | –
8 | N#Cc1ccc(C(F)(F)F)cc1NC(=O)[C@]12C[C@@]1(c1ccnc(F)c1)[C@H]1O[C@@H]2C[C@@H]1O (racemic) [Example 78, rac-(1R,2R,4S,5R,6S)—N-(2-cyano-5-(trifluoromethyl)phenyl)-4-(2-fluoropyridin-4-yl)-6-hydroxy-8-oxatricyclo[3.2.1.02,4]octane-2-carboxamide] | > 30 | 40 | – | –
9 | N#Cc1ccc(NC(=O)[C@]23C[C@@]2(c2cccc(C(F)(F)F)c2)[C@H]2O[C@@H]3C[C@@H]2O)cc1C(F)(F)F (racemic) [Example 79, rac-(1R,2R,4S,5R,6S)—N-(4-cyano-3-(trifluoromethyl)phenyl)-6-hydroxy-4-(3-(trifluoromethyl)phenyl)-8-oxatricyclo[3.2.1.02,4]octane-2-carboxamide] | 9.9 | 78 | – | –
10 | N#Cc1ccc(C(F)(F)F)cc1NC(=O)[C@]12C[C@@]1(c1cccc(C(F)(F)F)c1)[C@H]1O[C@@H]2C[C@@H]1O (racemic) [Example 80, rac-(1R,2R,4S,5R,6S)—N-(2-cyano-5-(trifluoromethyl)phenyl)-6-hydroxy-4-(3-(trifluoromethyl)phenyl)-8-oxatricyclo[3.2.1.02,4]octane-2-carboxamide] | 2.2 | 76 | – | –
11 | O=C(Nc1cc(C(F)(F)F)ccc1F)[C@]12C[C@@]1(c1cccc(C(F)(F)F)c1)[C@H]1O[C@@H]2C[C@@H]1O (racemic) [Example 81, rac-(1R,2R,4S,5R,6S)—N-(2-fluoro-5-(trifluoromethyl)phenyl)-6-hydroxy-4-(3-(trifluoromethyl)phenyl)-8-oxatricyclo[3.2.1.02,4]octane-2-carboxamide] | > 30 | 47 | – | –
12 | O=C(Nc1cc(C(F)(F)F)ccn1)[C@]12C[C@@]1(c1cccc(C(F)(F)F)c1)[C@H]1O[C@@H]2C[C@@H]1O (racemic) [Example 82, rac-(1R,2R,4S,5R,6S)-6-hydroxy-4-(3-(trifluoromethyl)phenyl)-N-(4-(trifluoromethyl)pyridin-2-yl)-8-oxatricyclo[3.2.1.02,4]octane-2-carboxamide] | > 30 | 36 | – | –
13 | (1R,2R,4S,5R,6S)—N-(2-cyano-5-(trifluoromethyl)phenyl)-6-hydroxy-4-(2-methoxypyridin-4-yl)-8-oxatricyclo[3.2.1.02,4]octane-2-carboxamide or (1S,2S,4R,5S,6R)—N-(2-cyano-5-(trifluoromethyl)phenyl)-6-hydroxy-4-(2-methoxypyridin-4-yl)-8-oxatricyclo[3.2.1.02,4]octane-2-carboxamide [Example 39a] | – | – | (90) % | 0.29
14 | (1R,2R,4S,5R,6S)—N-(2-cyano-5-(trifluoromethyl)phenyl)-6-hydroxy-4-(2-methoxypyridin-4-yl)-8-oxatricyclo[3.2.1.02,4]octane-2-carboxamide or (1S,2S,4R,5S,6R)—N-(2-cyano-5-(trifluoromethyl)phenyl)-6-hydroxy-4-(2-methoxypyridin-4-yl)-8-oxatricyclo[3.2.1.02,4]octane-2-carboxamide [Example 39b] | – | – | (97) % | 0.25
